Here are results for 16 compounds from patent US10710997B2, “Isoquinoline amide and isoquinoline amide-substituted compounds as mGluR4 allosteric potentiators, compositions, and methods of treating neurological dysfunction” (Vanderbilt University, priority 2016, dated 2020).

The target of one data set is mGlu4 (UniProt Q14833). As to conditions: read-out: mGlu4 PAM EC50.
Data set [1] in a line: free drug level (fu) in human plasma. It counts as in vitro ADME. The text has this: (§1) As the only drug that interact with mGlu4 is free drug, the compounds of the present invention have unexpectedly exceptional profiles as putative drug candidates.
Data set [2] can be described thus: free drug level (fu) in rat plasma. It counts as in vitro ADME.
Source text: as §1

The next data set addresses T1, human mGluR4 (Homo sapiens, UniProt Q14833).
T1 construct: expressed in transfected cells; host or cells: CHO cells
As to the kind of experiment: human mGluR4 potentiation assay, CHO cells transfected with human mGluR4, Ca2+-sensitive dye. The class given is cell-based. As to conditions: human mGlu4; read-out: hmGlu4 EC50. As for the experimental part: The disclosed compounds and compositions can be evaluated for their ability to act as a potentiator of metabotropic glutamate receptor activity, in particular mGluR4 activity, by any suitable known methodology known in the art. For example, Chinese Hamster Ovary (CHO) cells transfected with human mGluR4 or HEK cells co-transfected with rat mGluR4 and the G-protein regulated Inwardly Rectifying Potassium channel (GIRK) were plated in clear bottom assay plates for assay in a Hamamatsu FDSS Fluorometric Plate Reader. The cells were loaded with either a Ca2+-sensitive fluorescent dye or the thallium responsive dye and the plates were washed and placed into a suitable kinetic plate reader. For human mGluR4 assays, a fluorescence baseline was established for 3-5 seconds, the disclosed compounds were then added to the cells, and the response in cells was measured. Approximately two and a half minutes later, a concentration of mGluR4 orthosteric agonist (e.g. glutamate or L-AP4) eliciting approximately 20% (EC20) of the maximal agonist response was added to the cells, and the response was measured. Two minutes later, a concentration of mGluR4 agonist (e.g. glutamate or L-AP4) eliciting 80% (EC80) of the maximal agonist response was added to the cells, and the response was measured. For rat mGluR4/GIRK experiments, a baseline was established for approximately five seconds, disclosed compounds were added, and either an EC20 or EC80 concentration of agonist was added approximately two and one half minutes later. Potentiation of the agonist response of mGluR4 by the disclosed compounds was observed as an increase in response to the EC20 concentration of agonist in the presence of compound compared to the response to agonist in the absence of compound. Similarly, antagonism of the agonist response of mGluR4 by the disclosed compounds was observed as a decrease in response to the EC80 concentration of agonist in the presence of compound compared to the response to agonist in the absence of compound.
The above described assay operated in two modes. In the first mode, a range of concentrations of the disclosed compounds are added to cells, followed by a single fixed concentration of agonist. If the compound acts as a potentiatior, an EC50 value for potentiation and a maximum extent of potentiation by the compound at this concentration of agonist is determined by non-linear curve fitting. If the compound acts as a noncompetitive antagonist, an IC50 value is determined by non-linear curve fitting. In the second mode, several fixed concentrations of the disclosed compounds are added to various wells on a plate, followed by a range in concentrations of agonist for each concentration of disclosed compound. The EC50 values for the agonist at each concentration of compound are determined by non-linear curve fitting. A decrease in the EC50 value of the agonist with increasing concentrations of the sample compound (a leftward shift of the agonist concentration-response curve) is an indication of the degree of mGluR4 potentiation at a given concentration of the sample compound. A decrease in the maximal response of the agonist with increasing concentrations of the sample compounds, with or without a rightward shift in agonist potency, is an indication of the degree of noncompetitive antagonism at mGluR4. The second mode also indicates whether the sample compounds also affect the maximum response to mGluR4 to agonists.

Data set [3] in a line: rat brain homogenate binding (BHB). As to conditions: read-out: Rat BHB fu. It counts as in vitro ADME.
Source text: as §1

Data set [4] can be described thus: in vitro DMPK: human intrinsic and predicted hepatic clearance. The class given is in vitro ADME. As to conditions: for Human CLINT: in vitro, unit assumed; for Human CLHEP: predicted human clearance, human hepatic blood flow 20 mL/min/kg.
Source text: as §1

Data set [5] in a line: in vitro DMPK: rat intrinsic and predicted hepatic clearance. The class given is in vitro ADME. As to conditions: for Rat CLINT: in vitro, unit assumed; for Rat CLHEP: predicted.
Source text: as §1

SMILES strings stand for the structures. pEC50: −log10 of the molar value.

T1 sequence (Q14833 33-912): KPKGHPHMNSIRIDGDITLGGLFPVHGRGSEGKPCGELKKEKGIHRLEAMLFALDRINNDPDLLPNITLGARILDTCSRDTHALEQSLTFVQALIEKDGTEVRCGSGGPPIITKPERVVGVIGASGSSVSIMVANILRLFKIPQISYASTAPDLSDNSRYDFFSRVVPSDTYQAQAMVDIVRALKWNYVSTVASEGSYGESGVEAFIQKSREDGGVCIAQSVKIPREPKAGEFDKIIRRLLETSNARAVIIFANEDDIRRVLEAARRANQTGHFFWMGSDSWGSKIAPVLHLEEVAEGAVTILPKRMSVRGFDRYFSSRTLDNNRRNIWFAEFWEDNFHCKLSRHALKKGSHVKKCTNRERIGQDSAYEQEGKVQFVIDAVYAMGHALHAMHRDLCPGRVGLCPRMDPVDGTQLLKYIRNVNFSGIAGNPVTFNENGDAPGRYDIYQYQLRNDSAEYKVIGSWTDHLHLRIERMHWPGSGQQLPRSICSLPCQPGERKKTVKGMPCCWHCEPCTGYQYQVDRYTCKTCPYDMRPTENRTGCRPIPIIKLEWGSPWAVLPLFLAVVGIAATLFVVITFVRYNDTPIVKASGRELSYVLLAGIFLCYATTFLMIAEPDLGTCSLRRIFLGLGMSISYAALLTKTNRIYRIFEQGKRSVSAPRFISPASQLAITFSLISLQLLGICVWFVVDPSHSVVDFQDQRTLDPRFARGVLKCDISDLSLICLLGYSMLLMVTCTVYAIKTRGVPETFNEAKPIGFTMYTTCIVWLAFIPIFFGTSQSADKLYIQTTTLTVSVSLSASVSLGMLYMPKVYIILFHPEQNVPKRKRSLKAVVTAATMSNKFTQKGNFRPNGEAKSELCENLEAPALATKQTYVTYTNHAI

Regarding `CN(C(=O)c1nccc2cc(Nc3n[nH]c4cccnc34)ccc12)C1CC(F)C1` (centres unmarked) [Compound 20], the pEC50 (in general, the EC50 on a negative log10 scale, so that one unit is a factor of ten) at mGlu4 was 6.26.

For `CN(C(=O)c1nccc2cc(Nc3n[nH]c4ncccc34)ccc12)C1CC(F)C1` (centres unmarked) [Compound 22], at mGlu4, the pEC50 is 5.74.

Regarding `CN(C(=O)c1nccc2cc(Nc3n[nH]c4cccnc34)ccc12)C1CC(F)(F)C1` [Compound 23], at mGlu4, the pEC50 is 6.47.

Regarding `CN(C(=O)c1nccc2cc(Nc3n[nH]c4ncccc34)ccc12)C1CC(F)(F)C1` [Compound 24], the pEC50 on mGlu4 was 5.91.

Regarding `CN(C(=O)c1nccc2cc(Nc3n[nH]c4ncccc34)ccc12)C1CCOC1` (centres unmarked) [Compound 25], the negative-log EC50 (pEC50) on mGlu4 was 5.36.

Turning to `CN(C(=O)c1nccc2cc(Nc3n[nH]c4cccnc34)ccc12)C1CCOC1` (centres unmarked) [Compound 26], the pEC50 on mGlu4 was 5.73.

In turn, `O=C(c1nccc2cc(Nc3n[nH]c4cccnc34)ccc12)N1CCCC(F)(F)C1` [Example 4] displayed a fraction unbound in data set [1] of 0.015. In data set [2], this compound yielded a fraction unbound of 0.158. For the same compound, the pEC50 on human mGluR4 is 6.93. In data set [3], the fraction unbound came out at 0.05. In data set [4], the Human CLINT was 172 mL/min/kg and the “Human CLHEP” value is recorded as 18.7 mL/min/kg. In data set [5], the Rat CLINT was 885 mL/min/kg and the Rat CLHEP was 64.9 mL/min/kg.

For the compound `O=C(c1nccc2cc(Nc3n[nH]c4cccnc34)ccc12)N1CC[C@H](F)C1` [Example 5], the fraction unbound in data set [1] is 0.094; in data set [2], 0.327; in data set [3] it was 0.095. For the same compound, the pEC50 on human mGluR4 is 6.44. Moreover, the Human CLINT in data set [4] was 6.91 mL/min/kg. In data set [4], the “Human CLHEP” value is given as 5.20 mL/min/kg. The Rat CLINT in data set [5] was 32.5 mL/min/kg. The Rat CLHEP in data set [5] was 22.2 mL/min/kg.

On to `CS(=O)(=O)N1CCN(C(=O)c2nccc3cc(Nc4n[nH]c5cccnc45)ccc23)CC1` [Example 6], for which the fraction unbound in data set [1] stood at 0.134. Besides, the fraction unbound in data set [2] stood at 0.328. The pEC50 on human mGluR4 was 6.57. Also, the fraction unbound in data set [3] was 0.085. In data set [4], the Human CLINT was 7.44 mL/min/kg and the “Human CLHEP” value is listed as 5.49 mL/min/kg. In data set [5], the Rat CLINT was 230 mL/min/kg and the Rat CLHEP was 53.7 mL/min/kg.

`O=C(c1nccc2cc(Nc3n[nH]c4cccnc34)ccc12)N1CCC(F)(F)CC1` [Example 7] displayed a fraction unbound in data set [1] of 0.094. Also, in data set [2], the fraction unbound turned out to be 0.168. The pEC50 on human mGluR4 was 7.24. Also, in data set [3], the fraction unbound came out at 0.055. Moreover, in data set [4], the Human CLINT is 87.4 mL/min/kg and the “Human CLHEP” value is on record as 16.9 mL/min/kg. Also, in data set [5], the Rat CLINT is 568 mL/min/kg and the Rat CLHEP is 62.3 mL/min/kg.

With `O=C(NC1CC(F)C1)c1nccc2cc(Nc3n[nH]c4cccnc34)ccc12` (centres unmarked) [Example 8], the fraction unbound in data set [1] is 0.11. Moreover, in data set [2], the fraction unbound stood at 0.107. Further, the pEC50 on human mGluR4 was 7.68. Besides, the fraction unbound in data set [3] amounted to 0.02. For the same compound, in data set [4], the Human CLINT is 6.61 mL/min/kg and the “Human CLHEP” value is 5.03 mL/min/kg. In data set [5], the Rat CLINT is 32.4 mL/min/kg and the Rat CLHEP is 22.2 mL/min/kg.

In the case of `O=C(NC1CC(F)(F)C1)c1nccc2cc(Nc3n[nH]c4cccnc34)ccc12` [Example 9], in data set [1], the fraction unbound stood at 0.09. In data set [2], this compound gave a fraction unbound of 0.076. Further, the pEC50 on human mGluR4 was 8.00. The fraction unbound in data set [3] is 0.01. Further, in data set [4], the Human CLINT is 9.01 mL/min/kg and the “Human CLHEP” value is given as 6.30 mL/min/kg. In addition, in data set [5], the Rat CLINT is 32.8 mL/min/kg and the Rat CLHEP is 22.3 mL/min/kg.

As to `COC1CC(NC(=O)c2nccc3cc(Nc4n[nH]c5cccnc45)ccc23)C1` (centres unmarked) [Example 10], the fraction unbound in data set [1] turned out to be 0.059. Moreover, the fraction unbound in data set [2] was 0.089. Moreover, the pEC50 on human mGluR4 is 7.59. Besides, in data set [3], the fraction unbound is 0.082. Besides, in data set [4], the Human CLINT was 10.2 mL/min/kg and the “Human CLHEP” value is 6.86 mL/min/kg. Besides, in data set [5], the Rat CLINT is 26.7 mL/min/kg and the Rat CLHEP is 19.3 mL/min/kg.

With `O=C(NC1CCOC1)c1nccc2cc(Nc3n[nH]c4cccnc34)ccc12` (centres unmarked) [Example 11], the fraction unbound in data set [1] is 0.188. Also, the fraction unbound in data set [2] stood at 0.229. For the same compound, on human mGluR4, the pEC50 was 7.22. Further, the fraction unbound in data set [3] was determined as 0.068. In data set [4], the Human CLINT was 0.63 mL/min/kg and the “Human CLHEP” value was 0.61 mL/min/kg. For the same compound, in data set [5], the Rat CLINT is 2.82 mL/min/kg and the Rat CLHEP is 2.71 mL/min/kg.

Consider `O=C(NC1CC(F)(F)C1)c1nccc2cc(Nc3n[nH]c4ncccc34)ccc12` [Example 27], for which the fraction unbound in data set [1] was 0.073. Besides, the fraction unbound in data set [2] amounted to 0.075. Also, the negative-log EC50 (pEC50) at human mGluR4 was 7.25. The fraction unbound in data set [3] is 0.009. In data set [4], the Human CLINT is 7.64 mL/min/kg and the “Human CLHEP” value is recorded as 5.60 mL/min/kg. In data set [5], the Rat CLINT is 37 mL/min/kg and the Rat CLHEP was 24.2 mL/min/kg.

As to `O=C(c1nccc2cc(Nc3n[nH]c4ncccc34)ccc12)N1CCC(F)(F)CC1` [Example 28], the fraction unbound in data set [1] turned out to be 0.218. Besides, the fraction unbound in data set [2] was 0.179. For the same compound, the pEC50 on human mGluR4 is 6.29. Also, in data set [3], the fraction unbound turned out to be 0.028. In data set [4], the Human CLINT was 83.4 mL/min/kg and the “Human CLHEP” value is given as 16.8 mL/min/kg. In addition, in data set [5], the Rat CLINT is 328 mL/min/kg and the Rat CLHEP is 57.7 mL/min/kg.
